Assay results published in ChEMBL document CHEMBL1201862, “PubChem BioAssay data set” (2004).
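Compound exposure: 48 hours, 5 concentrations, 96-well plates. GI50 marks 50% less growth.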 Calls of active or inactive are those of the source. Cut-off read from the data, not from the text of the source: active = GI50 up to about 1.1 µM and inactive = higher.

Assays:
Assay in all cases: NCI tumour cell line growth inhibition, 48 h
A498 = system: A498
A549 = system: A549
EKVX = system: EKVX
HCC 2998 = system: HCC 2998
HCT-116 = system: HCT-116
HCT-15 = system: HCT-15
IGROV-1 = system: IGROV-1
MOLT-4 = system: MOLT-4
NCI-H522 = system: NCI-H522
OVCAR-3 = system: OVCAR-3
OVCAR-4 = system: OVCAR-4
RPMI-8226 = system: RPMI-8226
SF-268 = system: SF-268
SF-295 = system: SF-295
SF-539 = system: SF-539
SK-MEL-28 = system: SK-MEL-28
SK-MEL-5 = system: SK-MEL-5
SW-620 = system: SW-620
U-251 = system: U-251
UACC-257 = system: UACC-257

SMILES	GI50 (A498)	GI50 (A549)	GI50 (EKVX)	GI50 (HCC 2998)	GI50 (HCT-116)	GI50 (HCT-15) [µM]	GI50 (IGROV-1)	GI50 (MOLT-4)	GI50 (NCI-H522)	GI50 (OVCAR-3)	GI50 (OVCAR-4)	GI50 (RPMI-8226)	GI50 (SF-268)	GI50 (SF-295)	GI50 (SF-539)	GI50 (SK-MEL-28)	GI50 (SK-MEL-5)	GI50 (SW-620)	GI50 (U-251)	GI50 (UACC-257)
Cc1ccc2c3c4c(ccc13)C(C)(C)OC4=C(C(C)C)C2=O	> 100 µM (inactive)	55.5 µM (inactive)	63.5 µM (inactive)	39.8 µM (inactive)	53.1 µM (inactive)	32.5	55.3 µM (inactive)	26.4 µM (inactive)	26.8 µM (inactive)	13.8 µM (inactive)	65.5 µM (inactive)	43.7 µM (inactive)	34.7 µM (inactive)	88.3 µM (inactive)	> 100 µM (inactive)	91.6 µM (inactive)	32.2 µM (inactive)	> 100 µM (inactive)	79.8 µM (inactive)	30.5 µM (inactive)
CCN(CC)c1ccc2c(c1)Oc1ccc(N(C(C)=O)c3ccccc3)cc1C21OC(=O)c2ccccc21 (stereo not given)	> 100 µM (inactive)	37.8 µM (inactive)	84.7 µM (inactive)	> 100 µM (inactive)	36.1 µM (inactive)	92.7	> 100 µM (inactive)	16.7 µM (inactive)	62.7 µM (inactive)	> 100 µM (inactive)	> 82.8 µM (inactive)	6.76 µM (inactive)	> 100 µM (inactive)	41.8 µM (inactive)	> 100 µM (inactive)	> 100 µM (inactive)	24.2 µM (inactive)	47.1 µM (inactive)	> 77.3 µM (inactive)	> 100 µM (inactive)
CCOC(=O)c1ccc(N[C@@H]2c3cc4c(cc3C(c3cc(OC)c(O)c(OC)c3)[C@H]3C(=O)OCC32)OCO4)cc1O (stereo not given in full)	0.607 µM (active)	0.0946 µM (active)	2.25 µM (inactive)	1.92 µM (inactive)	0.505 µM (active)	1.09	2.68 µM (inactive)	0.0207 µM (active)	0.665 µM (active)	2.43 µM (inactive)	7.69 µM (inactive)	0.94 µM (active)	0.789 µM (active)	0.498 µM (active)	0.685 µM (active)	1.22 µM (inactive)	1.19 µM (inactive)	0.942 µM (active)	0.92 µM (active)	2.91 µM (inactive)
O=C(CCC(=O)Nc1ccccc1C(F)(F)F)N/N=C1\C(=N\NC(=O)CCC(=O)Nc2ccccc2C(F)(F)F)C(c2ccc3c(c2)OCO3)Oc2ccccc21 (stereo not given)	51.3 µM (inactive)	7.16 µM (inactive)	9.79 µM (inactive)	> 100 µM (inactive)	5.9 µM (inactive)	5.33	16.9 µM (inactive)	3.01 µM (inactive)	4.74 µM (inactive)	3.43 µM (inactive)	9.95 µM (inactive)	4.44 µM (inactive)	3.01 µM (inactive)	8.32 µM (inactive)	12 µM (inactive)	> 100 µM (inactive)	7.74 µM (inactive)	6.22 µM (inactive)	4.97 µM (inactive)	> 100 µM (inactive)
Nc1ccc2[nH]c3c(-c4ccccc4)nccc3c2c1	36.5 µM (inactive)	48.9 µM (inactive)	> 100 µM (inactive)	28.8 µM (inactive)	34.6 µM (inactive)	41.3	57.4 µM (inactive)	4.46 µM (inactive)	59.2 µM (inactive)	56.9 µM (inactive)	23.7 µM (inactive)	20.3 µM (inactive)	> 100 µM (inactive)	41.2 µM (inactive)	71.6 µM (inactive)	> 100 µM (inactive)	19.8 µM (inactive)	65.8 µM (inactive)	75 µM (inactive)	> 75.3 µM (inactive)
COC(O)C(=O)c1ccc2c(c1)CC1(C2)Cc2cc3c(cc2C1=O)CCC3 (stereo not given)	18.7 µM (inactive)	20.2 µM (inactive)	19.2 µM (inactive)	19.1 µM (inactive)	18.9 µM (inactive)	22.2	16.1 µM (inactive)	15 µM (inactive)	19 µM (inactive)	18.9 µM (inactive)	16.1 µM (inactive)	12.3 µM (inactive)	19.4 µM (inactive)	23.7 µM (inactive)	18.1 µM (inactive)	15.1 µM (inactive)	16 µM (inactive)	14.5 µM (inactive)	18.4 µM (inactive)	21.4 µM (inactive)
Nc1nc(N)c2c(Cl)c(CNc3ccc(Cl)c(Cl)c3)ccc2n1	0.0682 µM (active)	< 0.01 µM (active)	2.87 µM (inactive)	0.0146 µM (active)	< 0.01 µM (active)	< 0.01	< 0.01 µM (active)	< 0.0536 µM (active)	0.0499 µM (active)	0.168 µM (active)	0.871 µM (active)	0.181 µM (active)	0.0116 µM (active)	< 0.01 µM (active)	0.016 µM (active)	0.78 µM (active)	< 0.01 µM (active)	< 0.01 µM (active)	< 0.0215 µM (active)	0.138 µM (active)
CCCCC(C)C1CCC2(C)C=CC(=O)C(C)=C2C1O (stereo not given)	> 100 µM (inactive)	> 100 µM (inactive)	> 100 µM (inactive)	> 100 µM (inactive)	> 100 µM (inactive)	> 100	> 100 µM (inactive)	> 100 µM (inactive)	> 100 µM (inactive)	> 100 µM (inactive)	> 100 µM (inactive)	> 100 µM (inactive)	> 100 µM (inactive)	> 100 µM (inactive)	> 100 µM (inactive)	> 100 µM (inactive)	> 100 µM (inactive)	> 100 µM (inactive)	> 100 µM (inactive)	> 100 µM (inactive)
CN(C)CCCNc1ccc2nnn3c4ccc(O)cc4c(=O)c1c23	6.92 µM (inactive)	0.358 µM (active)	9.98 µM (inactive)	1.89 µM (inactive)	1.34 µM (inactive)	2.85	1.92 µM (inactive)	0.2 µM (active)	3.7 µM (inactive)	9.02 µM (inactive)	4.54 µM (inactive)	2.47 µM (inactive)	2.88 µM (inactive)	4.37 µM (inactive)	6.44 µM (inactive)	6.52 µM (inactive)	5.73 µM (inactive)	1.16 µM (inactive)	2.73 µM (inactive)	15.8 µM (inactive)
Nc1ncnc2c1ncn2[C@@H]1O[C@H](COP(=O)(O)O)[C@@H](O)[C@@H]1O	> 50 µM (inactive)	> 50 µM (inactive)	> 50 µM (inactive)	> 50 µM (inactive)	> 50 µM (inactive)	> 50	> 50 µM (inactive)	> 38.8 µM (inactive)	> 50 µM (inactive)	> 50 µM (inactive)	> 50 µM (inactive)	> 50 µM (inactive)	> 50 µM (inactive)	> 50 µM (inactive)	> 50 µM (inactive)	> 50 µM (inactive)	> 50 µM (inactive)	> 50 µM (inactive)	> 50 µM (inactive)	> 50 µM (inactive)
c1ccc2c(c1)cc1n2CC2CN=NC12 (stereo not given)	> 100 µM (inactive)	> 100 µM (inactive)	> 100 µM (inactive)	> 100 µM (inactive)	> 100 µM (inactive)	> 100	> 100 µM (inactive)	> 100 µM (inactive)	> 100 µM (inactive)	> 100 µM (inactive)	> 100 µM (inactive)	> 100 µM (inactive)	> 100 µM (inactive)	> 100 µM (inactive)	> 100 µM (inactive)	> 100 µM (inactive)	> 100 µM (inactive)	> 100 µM (inactive)	> 100 µM (inactive)	> 100 µM (inactive)
COC(=O)c1ccc2c(c1)CCN2C(=O)c1cc2c(cc1Br)OCO2	1.05 µM (active)	1.74 µM (inactive)	4.66 µM (inactive)	0.989 µM (active)	0.228 µM (active)	1.82	0.614 µM (active)	0.504 µM (active)	0.119 µM (active)	0.313 µM (active)	1.54 µM (inactive)	0.668 µM (active)	1.8 µM (inactive)	0.565 µM (active)	0.148 µM (active)	11 µM (inactive)	0.167 µM (active)	0.822 µM (active)	0.822 µM (active)	0.305 µM (active)
CC(=O)OCC1OC(n2cc(F)c(=O)[nH]c2=O)C(NC(=O)OCc2ccccc2)C(OC(C)=O)C1OC(C)=O (stereo not given)	> 100 µM (inactive)	> 100 µM (inactive)	> 100 µM (inactive)	> 100 µM (inactive)	> 100 µM (inactive)	> 100	> 100 µM (inactive)	> 100 µM (inactive)	> 95.3 µM (inactive)	> 100 µM (inactive)	> 100 µM (inactive)	> 100 µM (inactive)	> 100 µM (inactive)	> 100 µM (inactive)	> 100 µM (inactive)	> 100 µM (inactive)	> 100 µM (inactive)	> 100 µM (inactive)	> 100 µM (inactive)	> 100 µM (inactive)
COc1ccc(C23C(=O)c4ccccc4N2O[C@H]2C(=O)N(c4ccccc4)C(=O)[C@H]23)cc1 (stereo not given in full)	> 100 µM (inactive)	> 100 µM (inactive)	> 100 µM (inactive)	> 100 µM (inactive)	> 100 µM (inactive)	> 100	> 100 µM (inactive)	> 100 µM (inactive)	14 µM (inactive)	> 100 µM (inactive)	> 100 µM (inactive)	> 100 µM (inactive)	> 100 µM (inactive)	> 100 µM (inactive)	> 100 µM (inactive)	> 100 µM (inactive)	> 100 µM (inactive)	> 100 µM (inactive)	> 100 µM (inactive)	> 100 µM (inactive)
